Reference: PubChem BioAssay AID330 (DTP/NCI, 2004)
Several values for one entry are separate records, joined by “and”; a condition that tells them apart may be missing. Identical values can stand only once. Toxic doses and inconclusive results are not listed.

System: P388 leukemia ip, CD2F1 mice, survival T/C
Assay: NCI In Vivo Anticancer Drug Screen. Data for tumor model P388 Leukemia (intraperitoneal) in CD2F1 (CDF1) mice
Conditions: endpoint: median survival time, higher = longer survival
Outline: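 Mice carrying the transplanted tumor received test compound or vehicle. Survival was recorded in each group, and the value is the treated-group measurement divided by that of the vehicle-treated control group.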

[1] = dose: 50.0 mg/kg/injection, schedule: Q01DX005 (ip), vehicle: Klucel (hydroxypropylcellulose) (HPC)
[2] = dose: 100.0 mg/kg/injection, schedule: Q01DX005 (ip), vehicle: Klucel (hydroxypropylcellulose) (HPC)
[3] = dose: 200.0 mg/kg/injection, schedule: Q01DX005 (ip), vehicle: Klucel (hydroxypropylcellulose) (HPC)
[4] = dose: 60.0 mg/kg/injection, schedule: Q01DX005 (ip), vehicle: saline with Tween-80
[5] = dose: 120.0 mg/kg/injection, schedule: Q01DX005 (ip), vehicle: saline with Tween-80
[6] = dose: 25.0 mg/kg/injection, schedule: Q01DX009 (ip), vehicle: saline with Tween-80
[7] = dose: 25.0 mg/kg/injection, schedule: Q04DX003 (ip), vehicle: saline with Tween-80
[8] = dose: 50.0 mg/kg/injection, schedule: Q01DX009 (ip), vehicle: saline with Tween-80
[9] = dose: 50.0 mg/kg/injection, schedule: Q04DX003 (ip), vehicle: saline with Tween-80
[10] = dose: 100.0 mg/kg/injection, schedule: Q01DX009 (ip), vehicle: saline with Tween-80
[11] = dose: 100.0 mg/kg/injection, schedule: Q04DX003 (ip), vehicle: saline with Tween-80
[12] = dose: 200.0 mg/kg/injection, schedule: Q01DX009 (ip), vehicle: saline with Tween-80
[13] = dose: 200.0 mg/kg/injection, schedule: Q04DX003 (ip), vehicle: saline with Tween-80
[14] = dose: 400.0 mg/kg/injection, schedule: Q04DX003 (ip), vehicle: saline with Tween-80
[15] = dose: 50.0 mg/kg/injection, schedule: Q01DX009 (ip), vehicle: Klucel (hydroxypropylcellulose) (HPC)
[16] = dose: 100.0 mg/kg/injection, schedule: Q01DX009 (ip), vehicle: Klucel (hydroxypropylcellulose) (HPC)
[17] = dose: 200.0 mg/kg/injection, schedule: Q01DX009 (ip), vehicle: Klucel (hydroxypropylcellulose) (HPC)
[18] = dose: 25.0 mg/kg/injection, schedule: Q01DX005 (ip), vehicle: Klucel (hydroxypropylcellulose) (HPC)

SMILES: O=C(NO)c1cccc2ccccc12
- T/C [1]: 106 % of control
- T/C [2]: 106 % of control
- T/C [3]: 113 % of control

SMILES: CCOc1ccc2c(c1)C(C)=CC(C)(C)N2
- T/C (dose: 100.0 mg/kg/injection, schedule: Q04DX003 (ip), vehicle: Klucel (hydroxypropylcellulose) (HPC)): 99 % of control
- T/C (dose: 200.0 mg/kg/injection, schedule: Q04DX003 (ip), vehicle: Klucel (hydroxypropylcellulose) (HPC)): 102 % of control
- T/C (dose: 400.0 mg/kg/injection, schedule: Q04DX003 (ip), vehicle: Klucel (hydroxypropylcellulose) (HPC)): 102 % of control

SMILES: COC(=O)c1cc2c(cc1/C=C/C=O)OCO2
- T/C [4]: 100 % of control
- T/C [5]: 109 % of control
- T/C (dose: 240.0 mg/kg/injection, schedule: Q01DX005 (ip), vehicle: saline with Tween-80): 109 % of control

SMILES: CCCSc1ccc2nc(NC(=O)OC)[nH]c2c1
- T/C [4]: 106 % of control and 111 % of control
- T/C [5]: 109 % of control and 112 % of control
- T/C (dose: 480.0 mg/kg/injection, schedule: Q01DX005 (ip), vehicle: saline with Tween-80): 156 % of control

SMILES: Nc1nc2c(ncn2C2OC(CO)C(O)C2N)c(=O)[nH]1 (stereo not given)
- T/C [6]: 106 % of control and 97 % of control
- T/C [7]: 103 % of control
- T/C (dose: 25.0 mg/kg/injection, schedule: Q04DX003 (ip), vehicle: saline): 101 % of control
- T/C [8]: 100 % of control and 107 % of control
- T/C [9]: 96 % of control
- T/C (dose: 50.0 mg/kg/injection, schedule: Q04DX003 (ip), vehicle: saline): 104 % of control
- T/C [10]: 106 % of control
- T/C [11]: 101 % of control
- T/C (dose: 100.0 mg/kg/injection, schedule: Q04DX003 (ip), vehicle: saline): 100 % of control and 105 % of control
- T/C [12]: 100 % of control
- T/C [13]: 104 % of control
- T/C (dose: 200.0 mg/kg/injection, schedule: Q04DX003 (ip), vehicle: saline): 98 % of control and 108 % of control
- T/C [14]: 101 % of control
- T/C (dose: 400.0 mg/kg/injection, schedule: Q04DX003 (ip), vehicle: saline): 105 % of control and 107 % of control

SMILES: CN/N=C/c1cc(=O)n(C)c(=O)n1C
- T/C [8]: 101 % of control
- T/C [10]: 101 % of control
- T/C [12]: 99 % of control

SMILES: CC1(C)NC(=O)N(Cc2ccccc2)C1=O
- T/C [15]: 102 % of control
- T/C (dose: 50.0 mg/kg/injection, schedule: Q01DX009 (ip), vehicle: saline): 108 % of control
- T/C [16]: 101 % of control
- T/C (dose: 100.0 mg/kg/injection, schedule: Q01DX009 (ip), vehicle: saline): 108 % of control
- T/C [17]: 102 % of control
- T/C (dose: 200.0 mg/kg/injection, schedule: Q01DX009 (ip), vehicle: saline): 104 % of control

SMILES: O=S(=O)(O)c1ccc(Cl)c(N=N/C=N/Nc2cc(S(=O)(=O)O)ccc2Cl)c1
- T/C [1]: 100 % of control
- T/C [2]: 98 % of control
- T/C [3]: 100 % of control

SMILES: C[n+]1ccc2cc(-c3ccccc3)c3ccccc3c2c1
- T/C (dose: 1.56 mg/kg/injection, schedule: Q01DX009 (ip), vehicle: saline): 109 % of control
- T/C (dose: 3.13 mg/kg/injection, schedule: Q01DX009 (ip), vehicle: saline): 116 % of control
- T/C (dose: 6.25 mg/kg/injection, schedule: Q01DX009 (ip), vehicle: saline): 109 % of control

SMILES: O=C1NC(=S)NC(=O)C1=Cc1cccc2cc3ccccc3cc12
- T/C [18]: 100 % of control
- T/C [1]: 89 % of control
- T/C [2]: 95 % of control

SMILES: COC(=O)C(CCCCNC(=O)OCc1ccccc1)NC(=O)C(CCCCNC(=O)OCc1ccccc1)NC(=O)OC(C)(C)C (stereo not given)
- T/C (dose: 6.25 mg/kg/injection, schedule: Q01DX005 (ip), vehicle: saline with Tween-80): 100 % of control
- T/C (dose: 12.5 mg/kg/injection, schedule: Q01DX005 (ip), vehicle: saline with Tween-80): 97 % of control
- T/C (dose: 25.0 mg/kg/injection, schedule: Q01DX005 (ip), vehicle: saline with Tween-80): 97 % of control

SMILES: CP(C)(=S)[S][Sn]([CH3])([CH3])[S]P(C)(C)=S
- T/C (dose: 6.25 mg/kg/injection, schedule: Q01DX005 (ip), vehicle: Klucel (hydroxypropylcellulose) (HPC)): 109 % of control and 113 % of control
- T/C (dose: 12.5 mg/kg/injection, schedule: Q01DX005 (ip), vehicle: Klucel (hydroxypropylcellulose) (HPC)): 108 % of control and 115 % of control and 117 % of control
- T/C [18]: 105 % of control and 106 % of control and 122 % of control

SMILES: COc1ccc(NC(=S)N(C)C)cc1
- T/C [11]: 95 % of control
- T/C [13]: 100 % of control
- T/C [14]: 95 % of control

SMILES: O=Nc1c2n[nH]c1CCCCCCCCC2
- T/C [1]: 101 % of control
- T/C [2]: 101 % of control
- T/C [3]: 98 % of control

SMILES: CN(C)C[N+](C)(C)Cc1ccc(C[N+](C)(C)C[N+](C)(C)Cc2ccc(CCl)cc2)cc1
- T/C (dose: 0.19 mg/kg/injection, schedule: Q04DX003 (ip), vehicle: saline): 100 % of control
- T/C (dose: 0.39 mg/kg/injection, schedule: Q04DX003 (ip), vehicle: saline): 94 % of control
- T/C (dose: 0.78 mg/kg/injection, schedule: Q04DX003 (ip), vehicle: saline): 103 % of control and 88 % of control
- T/C (dose: 1.56 mg/kg/injection, schedule: Q04DX003 (ip), vehicle: saline): 88 % of control
- T/C (dose: 3.12 mg/kg/injection, schedule: Q04DX003 (ip), vehicle: saline): 99 % of control

SMILES: N#CCC(=O)N/N=C(/CC1(O)C(=O)Nc2c(Cl)ccc(Cl)c21)c1ccco1 (stereo not given)
- T/C (dose: 100.0 mg/kg/injection, schedule: Q04DX002 (ip), vehicle: saline with Tween-80): 97 % of control
- T/C (dose: 200.0 mg/kg/injection, schedule: Q04DX002 (ip), vehicle: saline with Tween-80): 89 % of control
- T/C (dose: 400.0 mg/kg/injection, schedule: Q04DX002 (ip), vehicle: saline with Tween-80): 89 % of control

SMILES: O=C1NC(=O)c2c3ccc(c21)CCc1ccc(c2c1C(=O)NC2=O)CC3
- T/C [8]: 97 % of control
- T/C [10]: 92 % of control
- T/C [12]: 92 % of control

SMILES: COC(=O)/C=C1/Nc2cnc(Nc3ccccc3)nc2N(c2ccccc2)C1=O
- T/C (dose: 40.0 mg/kg/injection, schedule: Q01DX009 (ip), vehicle: saline): 87 % of control
- T/C (dose: 80.0 mg/kg/injection, schedule: Q01DX009 (ip), vehicle: saline): 89 % of control
- T/C (dose: 160.0 mg/kg/injection, schedule: Q01DX009 (ip), vehicle: saline): 87 % of control

SMILES: CCOC(=O)C(C)ONC(=O)Nc1ccc(Cl)cc1 (stereo not given)
- T/C [8]: 105 % of control
- T/C [10]: 103 % of control
- T/C [12]: 95 % of control

SMILES: COc1ccc(CNNc2ccc(NC(C)=O)cc2N)cc1
- T/C [7]: 90 % of control
- T/C [9]: 88 % of control
- T/C [11]: 105 % of control

SMILES: CN(C)c1ccc(CN(Cc2ccccc2)CC(O)c2ccccc2)cc1 (stereo not given)
- T/C (dose: 6.25 mg/kg/injection, schedule: Q01DX009 (ip), vehicle: saline with Tween-80): 97 % of control
- T/C (dose: 12.5 mg/kg/injection, schedule: Q01DX009 (ip), vehicle: saline with Tween-80): 100 % of control
- T/C [6]: 100 % of control
- T/C [8]: 102 % of control

SMILES: Nc1nc(=O)n(C2OC(CO)C(O)C2O)cc1F (stereo not given)
- T/C (dose: 9.0 mg/kg/injection, schedule: Q01DX009 (ip), vehicle: saline sonified): 190 % of control
- T/C (dose: 9.0 mg/kg/injection, schedule: Q04DX003 (ip), vehicle: saline sonified): 154 % of control
- T/C (dose: 18.0 mg/kg/injection, schedule: Q01DX009 (ip), vehicle: saline sonified): 200 % of control
- T/C (dose: 18.0 mg/kg/injection, schedule: Q04DX003 (ip), vehicle: saline sonified): 162 % of control
- T/C (dose: 24.0 mg/kg/injection, schedule: Q04DX003 (ip), vehicle: saline with Tween-80): 181 % of control
- T/C (dose: 36.0 mg/kg/injection, schedule: Q01DX009 (ip), vehicle: saline sonified): 236 % of control
- T/C (dose: 36.0 mg/kg/injection, schedule: Q04DX003 (ip), vehicle: saline sonified): 162 % of control
- T/C (dose: 36.0 mg/kg/injection, schedule: Q04DX003 (ip), vehicle: saline with Tween-80): 172 % of control
- T/C (dose: 54.0 mg/kg/injection, schedule: Q04DX003 (ip), vehicle: saline with Tween-80): 186 % of control

SMILES: Nc1nc(=O)n(C2CCCCO2)cc1Br (stereo not given)
- T/C [1]: 104 % of control
- T/C [2]: 109 % of control
- T/C [3]: 97 % of control

SMILES: Cc1ccc2c(c1)sc1n[nH]c(=S)n12
- T/C [15]: 100 % of control
- T/C [16]: 100 % of control
- T/C [17]: 100 % of control
